According to US20040047894A1, “Preparation for improved dietary utilisation” (priority 2001, published 2004):

Columns and labels:
ICR mice [1] = assay: Four-week feeding experiment: bodyweight, feed intake and feed utilization; format: in vivo; details: four weeks
ICR mice [2] = details: 1.0% calendic acid (ethyl ester) in feed, six weeks
Method: 5-6-week-old male and female ICR mice were obtained from Charles River. 18 animals (9 m/w) were randomly assigned to each experimental group. The animals were raised in groups of 3 animals at 20° C. in a 12-hour light/dark cycle. […] It comprised the following components: sucrose, casein, corn starch, DL-methionin, 5.5% of a mixture of vegetable oils (so that the feed comprised 0.6% linolenic acid and 3% linoleic acid of the total lipids), mineral and vitamin mix and Ethoxyquin (0.1 g/kg). In the experimental feed, the amount of vegetable oils was replaced by the corresponding amount of calendic acid. Calendic acid was present here as the ethyl ester and was obtained from calendula oil (BiRo, Sommerschenburg, Germany).
After a one-week adaptation period on control feed, a six-week experiment was carried out. Body weight and feed intake were measured weekly. At the end of the study the animals were killed and viscera and organs such as liver, heart and lungs were removed. The empty carcasses were frozen in liquid nitrogen, homogenized, and the contents of fat, protein and ash were determined by standard methods.

Compound: CCCCC\C=C/C=C/C=C/CCCCCCC(=O)O [Calendic acid, calendic acid]
- feed intake, male animals (ICR mice [1]; male ICR mice, calendula oil 0.5-2.0% in feed): dose-dependent effect towards reduced feed intake
- feed utilization, male animals (ICR mice [1]; male ICR mice, calendula oil 0.5-2.0% in feed, dose-dependent, FIG. 3): significantly improved
- weight gain (ICR mice [1]; male and female ICR mice, calendula oil 0.5-2.0% in feed, FIG. 1): without affecting weight gain
- feed intake (ICR mice [1]; male and female ICR mice, corn oil in feed replaced by crude calendula oil 0.5, 1.0 or 2.0% (approx. 62% calendic acid as triglyceride), FIG. 2): reduced feed intake
- changes in body weight versus control group (ICR mice [2]; ICR mice): comparable
- fat content in the experimental animals (ICR mice [2]; ICR mice, effect greater in male than in female animals): significantly decreased the fat content
- Body fat content (in % of body composition), female animals (ICR mice [2]; female ICR mice, control 10.3% fat): 9.5% fat
- Body fat content (in % of body composition), male animals (ICR mice [2]; male ICR mice, control 12.2% fat): 8.0% fat
